Columns and labels:
Type in all cases: cell-based, mouse
[1] = tested on: SACK-responsive, Pdx1-positive Panstra-25 pancreatic stem cells; assay: Gene-free iPSC reprogramming on STO feeders, colony phenotypes, Panstra-25; details: Panstra-25; hiFBS, 1 mM Xn
Experimental: (§1) Each tested SACK-derived cell strain was cultured on STO cell feeder monolayers in control medium with 10% DFBS, dialyzed fetal bovine serum (DFBS) or either of two commercial media for culture of murine embryonic stem cells (ESCs) and for the culture of reprogrammed cells such as iPSCs. Each medium condition was evaluated with or without supplementation with 1 mM xanthine (Xn). P/S denotes routine use of the antibiotics penicillin and streptomycin.
(§2) The method is an original pharmacological procedure for producing pluripotent stem cells. Cell strains derived in xanthine (Xn)-supplemented medium, by the method of suppression of asymmetric cell kinetics (SACK), were cultured in commercial media specified for the culture and/or production of pluripotent stem cells such as embryonic stem cells and iPSCs. Approximately 150,000 cells were plated on confluent STO cell feeders (i.e., mouse embryonic fibroblasts pre-treated with mitomycin C) in 10-cm culture dishes. In 2 weeks, iPSC-like cell colonies were detected.
(§3) To establish clonal strains, single colonies were picked, cultured in individual wells, and expanded for further study and cryo-preservation. A high fraction of the derived cell clones have morphological and biochemical properties indicative of iPSC cells.
(§4) Tissue-specific stem cells (e.g., Panstra-25 and Panstra-12 mouse pancreatic stem cell strains in the instant example) were cultured on mitomycin C-treated STO cell monolayers in commercial embryonic stem cell medium supplemented with the purine salvage base xanthine at 1 mM concentration (FIG. 4). Within 2-3 weeks of culture under otherwise standard conditions, cell colonies with embryonic stem cell-like morphology developed (FIG. 7B). These colonies were removed by mild trypsin treatment, transferred to individual cell culture wells prepared with STO cell feeders, and expanded in the respective embryonic stem cell culture medium supplemented with 1 mM xanthine (FIG. 5). The expanded cell clones expressed alkaline phosphatase (FIG. 8), a biochemical biomarker for the pluripotent phenotype of embryonic stem cells and iPSC cells. […] Xn supplementation increased the average production efficiency by as much as 3-fold (Table 6).

[2] = tested on: SACK-responsive, Pdx1-negative Panstra-12 pancreatic stem cells; assay: Gene-free iPSC reprogramming on STO feeders, colony phenotypes, Panstra-12; details: for Estimated gene-free iPSC colony formation efficiency, ES, AP+ (iPSC state) / Estimated gene-free iPSC colony formation efficiency, ES, AP− / Estimated gene-free iPSC colony formation efficiency, Fl, AP+ / Estimated gene-free iPSC colony formation efficiency, Fl, AP− / Phenotype ES, AP+ (iPSC state) of individual cell clones following expansion, clones/total / Phenotype ES, AP+ (iPSC state) of individual cell clones following expansion, percent / Phenotype ES, AP− of individual cell clones following expansion, clones/total / Phenotype ES, AP− of individual cell clones following expansion, percent / Phenotype Fl, AP+ of individual cell clones following expansion, clones/total / Phenotype Fl, AP+ of individual cell clones following expansion, percent / Phenotype Fl, AP− of individual cell clones following expansion, clones/total / Phenotype Fl, AP− of individual cell clones following expansion, percent: Panstra-12, 1 mM Xn
Experimental: as §1, §2, §3, §4

Panstra 11 [3] = assay: Gene-free iPSC reprogramming, Panstra 11; details: Panstra 11, SACK agent Xn
Experimental: as §1, §2
(§5) Tissue-specific stem cells (e.g., Panstra-25 and Panstra-12 mouse pancreatic stem cell strains in the instant example) were cultured on mitomycin C-treated STO cell monolayers in commercial embryonic stem cell medium supplemented with the purine salvage base xanthine at 1 mM concentration (FIG. 4). […]

Panstra 56 [4] = assay: Gene-free iPSC reprogramming, Panstra 56; details: Panstra 56, SACK agent Xn
Experimental: as §1, §2, §5

Panstra 11 [5] = assay: SACK responsiveness (cell kinetics, colony formation), Panstra 11; design: key: SACK-responsive (R); non-responsive (NR); details: Panstra 11, SACK agent Xn
Experimental: (§6) Cells were plated at colony forming density in SACK-free culture medium (Control) or culture medium supplemented to 1 mM concentration with the SACK agents xanthosine (Xs), xanthine (Xn), or hypoxanthine (Hx).
(§7) The terms “SACK-R” and “Xn-responsive” are used interchangeably. Xn-responsive cells are not transformed cells.
(§8) In the example, the differentiated cells are adult mouse pancreatic islet cells and Xn is the chemical compound used to suppress asymmetric cell kinetics (SACK). […] These Xn-treated and Xn-responsive cells then proceeded to express alkaline phosphatase, a known enzyme marker that is highly expressed in undifferentiated cells such as primordial germ cells (FIG. 8), after culture in media that support the proliferation of mouse pluripotent stem cells. Under these conditions, these Xn-expanded and Xn-responsive cells also multiply to form colonies that take on a clonal mouse embryonic stem cell-like morphology in culture, resembling a compact clump of round tiny cells, the clump having a smooth and well defined edge (FIG. 7B).
(§9) The SACK-derived clonal pancreatic cell strains have properties of either beta-cell precursors (Pdx1+) or more primitive pancreatic cells (Pdx1−). In the colony formation analyses, three hundred (300) cells were plated in replicate (n=3) 30-mm diameter culture dishes. […] Ten days later, plates were stained with crystal violet and colonies counted. […]

Panstra 12 = assay: SACK responsiveness (cell kinetics, colony formation), Panstra 12; design: key: SACK-responsive (R); non-responsive (NR); details: Panstra 12, SACK agent Xn
Text: as §7, §8
(§10) The SACK-derived clonal pancreatic cell strains have properties of either beta-cell precursors (Pdx1+) or more primitive pancreatic cells (Pdx1−). In the colony formation analyses, three hundred (300) cells were plated in replicate (n=3) 30-mm diameter culture dishes. Twenty-four hours later, the culture medium was replaced with the medium supplemented with SACK agents as indicated. Ten days later, plates were stained with crystal violet and colonies counted. Xs, xanthosine; Xn, xanthine; Hx hypoxanthine.

Panstra 25 = assay: SACK responsiveness (cell kinetics, colony formation), Panstra 25; design: key: SACK-responsive (R); non-responsive (NR); details: Panstra 25, SACK agent Xn
Experimental: as §6, §7, §8, §9

Panstra 56 [6] = assay: SACK responsiveness (cell kinetics, colony formation), Panstra 56; design: key: SACK-responsive (R); non-responsive (NR); details: Panstra 56, SACK agent Xn
Text: as §7, §8, §10

SACK-R strain Panstra-25 = assay: Insulin expression by immunofluorescence, pancreatic differentiation; details: routine culture conditions with Xn supplementation, three days
Text: Upper panels, routine culture conditions with Xn supplementation; lower panels, Xn-free differentiation conditions. DAPI, detection of corresponding cell nuclei. The expression of insulin was detected by immunofluorescence (data not shown). In order to study the formation of islet-like clusters after induction of differentiation in Xn-free medium, pancreatic beta-cell differentiation was induced by plating the cells on a poly-D-lysine substrate and changing growth medium to medium containing 1% dialysed fetal bovine serum, 20 ng/mL epidermal growth factor (EGF), 10 mM nicotinamide, and 25 mM glucose. […] Insulin was expressed in cells differentiated in Xn-free conditions after three days. The expression of insulin was detected by immunofluorescence (data not shown). DAPI, detection of corresponding cell nuclei. […] These properties of self-renewal in an undifferentiated state and the ability to produce differentiated pancreatic cells define the SACK-R strains as pancreatic tissue stem cells.

O=c1[nH]c(=O)c2[nH]cnc2[nH]1 [Xn, xanthine]
Phenotype Fl, AP− of individual cell clones following expansion, percent [1]: 26%
iPSC (gene-free iPSC reprogramming) ([2]; Panstra 12, SACK agent Xn): Yes
Estimated gene-free iPSC colony formation efficiency, ES, AP+ (iPSC state) ([2]; DFBS): 0.000%
Estimated gene-free iPSC colony formation efficiency, ES, AP− ([2]; DFBS): 0.047%
Estimated gene-free iPSC colony formation efficiency, Fl, AP+ ([2]; DFBS): 0.027%
Estimated gene-free iPSC colony formation efficiency, Fl, AP− ([2]; DFBS): 0.080%
Phenotype ES, AP+ (iPSC state) of individual cell clones following expansion, clones/total ([2]; DFBS): 0/23
Phenotype ES, AP+ (iPSC state) of individual cell clones following expansion, percent ([2]; DFBS): 0%
Phenotype ES, AP− of individual cell clones following expansion, clones/total ([2]; DFBS): 7/23
Phenotype ES, AP− of individual cell clones following expansion, percent ([2]; DFBS): 31%
Phenotype Fl, AP+ of individual cell clones following expansion, clones/total ([2]; DFBS): 4/23
Phenotype Fl, AP+ of individual cell clones following expansion, percent ([2]; DFBS): 17%
Phenotype Fl, AP− of individual cell clones following expansion, clones/total ([2]; DFBS): 12/23
Phenotype Fl, AP− of individual cell clones following expansion, percent ([2]; DFBS): 52%
Estimated gene-free iPSC colony formation efficiency, ES, AP+ (iPSC state) ([2]; KOSR): 0.067%
Estimated gene-free iPSC colony formation efficiency, ES, AP− ([2]; KOSR): 0.033%
Estimated gene-free iPSC colony formation efficiency, Fl, AP+ ([2]; KOSR): 0.007%
Estimated gene-free iPSC colony formation efficiency, Fl, AP− ([2]; KOSR): 0.007%
Phenotype ES, AP+ (iPSC state) of individual cell clones following expansion, clones/total ([2]; KOSR): 10/17
Phenotype ES, AP+ (iPSC state) of individual cell clones following expansion, percent ([2]; KOSR): 59%
Phenotype ES, AP− of individual cell clones following expansion, clones/total ([2]; KOSR): 5/17
Phenotype ES, AP− of individual cell clones following expansion, percent ([2]; KOSR): 29%
Phenotype Fl, AP+ of individual cell clones following expansion, clones/total ([2]; KOSR): 1/17
Phenotype Fl, AP+ of individual cell clones following expansion, percent ([2]; KOSR): 6%
Phenotype Fl, AP− of individual cell clones following expansion, clones/total ([2]; KOSR): 1/17
Phenotype Fl, AP− of individual cell clones following expansion, percent ([2]; KOSR): 6%
Estimated gene-free iPSC colony formation efficiency, ES, AP+ (iPSC state) ([2]; hiFBS): 0.020%
Estimated gene-free iPSC colony formation efficiency, ES, AP− ([2]; hiFBS): 0.033%
Estimated gene-free iPSC colony formation efficiency, Fl, AP+ ([2]; hiFBS): 0.000%
Estimated gene-free iPSC colony formation efficiency, Fl, AP− ([2]; hiFBS): 0.073%
Phenotype ES, AP+ (iPSC state) of individual cell clones following expansion, clones/total ([2]; hiFBS): 3/19
Phenotype ES, AP+ (iPSC state) of individual cell clones following expansion, percent ([2]; hiFBS): 16%
Phenotype ES, AP− of individual cell clones following expansion, clones/total ([2]; hiFBS): 5/19
Phenotype ES, AP− of individual cell clones following expansion, percent ([2]; hiFBS): 26%
Phenotype Fl, AP+ of individual cell clones following expansion, clones/total ([2]; hiFBS): 0/19
Phenotype Fl, AP+ of individual cell clones following expansion, percent ([2]; hiFBS): 0%
Phenotype Fl, AP− of individual cell clones following expansion, clones/total ([2]; hiFBS): 11/19
Phenotype Fl, AP− of individual cell clones following expansion, percent ([2]; hiFBS): 58%
higher rate of iPSC-like colony production, average ([2]; Pdx1− strain supplemented with Xn, p=0.024): 3 fold
increase of the conversion rate to iPSC ([2]; Xn in the iPSC media at 1 mM, strain not given): approximately 3 fold
increase of the average production efficiency of iPSC-like cell clones ([2]; Xn supplementation (Table 6)): ≤ 3 fold
iPSC (gene-free iPSC reprogramming) (Panstra 11 [3]): No
iPSC (gene-free iPSC reprogramming) (Panstra 56 [4]): No
SACK Type (Panstra 11 [5]): NR
SACK Type (Panstra 12): R
SACK Type (Panstra 25): R
SACK Type (Panstra 56 [6]): NR
expression of insulin (immunofluorescence) (SACK-R strain Panstra-25): no expressed insulin was detectable
